Reference: US20080267947A1, “Cancer therapy with cantharidin and cantharidin analogs” (priority 2006, published 2008)
Read-outs that look alike come from different tables or passages of the source.

Legend:
[1] = tested on: CD34+ cells from normal human cord blood; experiment: XTT colorimetric cytotoxicity assay on cord blood CD34+ cells; format: cell-based; details: FIG. 1, read-out: IC50, cytotoxicity against CD34+ cells (XTT)
Protocol: (§1) Determination of cell viability using the XTT assay: In some cases, CD34+ cells are isolated from human cord blood using magnetic beads coated with anti-CD34 antibody. Isolated cells are then counted and aliquoted into 96-well plates and then incubated in the presence of varying concentrations of cantharidin or norcantharidin. Cell viability it measured by the addition of the XTT calorimetric reagent. Viability is determined by the absorbance of treated cultures at approximately 450-500 nm compared to untreated cultures. In other cases, the cells used in the assay may be a leukemia cell line, such as MV4; 11. The assay can also be used to determine the time course of cell killing by various compounds by performing the XTT assay on cultures that are incubated with the compounds for varying periods of time.
(§2) CD34^+ cells were obtained from normal human cord blood by magnetic bead selection using anti-CD34 antibody coated beads. The cytotoxicity of cantharidin and norcantharidin against these cells was measured by a colorimetric assay using XTT (sodium 3′-{1-[(phenylamino)-carbonyl]-3,4-tetrazolium}-bis(4-methoxy-6-nitro) benzene-sulfonic acid hydrate). […] The absorbance of the supernatant was measured at 450 and 630 nm of wells without drug (with cells) as 100% and wells without cells as 0%. […]

[2] = tested on: CD34+ cells obtained from a leukemia patient (leukemic cancer stem cells); experiment: Cobblestone area forming cell (CAFC) assay, leukemia patient versus cord blood CD34+ cells; format: cell-based, human; details: 10 μM and 75 μM overnight; for sensitivity of leukemia cancer stem cells relative to normal stem cells (cord blood CD34+): CAFC, 5 weeks; for activity against leukemic cancer stem cells (cobblestone area counts vs control): cobblestone areas counted after 5 weeks on MS-5 monolayer, FIGS. 2 and 3
Protocol: (§3) Cobblestone assay: The cobblestone area-forming cell (CAFC) assay exploits a reproducible visual end point for the quantitation of cancer stem cells. Leukemia samples are added to adherent cultures of stromal cells, some embodiments MS-5 stromal cells. The cancer stem cells in the culture will migrate below the MS-5 stromal cells and form a colony of cells called a cobblestone that can be visual quantitated. To test the effect of cantharidin or norcantharidin on the cancer stem cell population using this assay, cells are first cultured in the presence of the drug. In some embodiments the cells are cultured for 16 hours. After this incubation, the cells are added to the stromal cultures. A reduction in the cobblestone area formation in cultures that were treated with the drug compared to the untreated cells represents cancer stem cell activity for the drug.
Cells were treated with 10 μM and 75 μM cantharidin or norcantharidin overnight. To assay for stem cells by the cobblestone area forming cell (CAFC) assay, CD34^+ cells subsequent to drug treatment were co-cultured with the MS-5 monolayer in X-Eagle minimum essential medium (α-MEM) containing 10% heat-inactivated FCS, 10% horse serum, 1×10^−6 M hydrocortisone, 2 mM L-glutamine, and 100 U/mL penicillin/streptomycin. After 5 weeks in culture, total cobblestone areas were counted. FIGS. 2 and 3 show bar graphs representing cobblestone area counts in the presence of no drug (control) and 10 and 75 μM of cantharidin and norcantharidin, respectively, using CD34+ cells obtained from a leukemia patient, and CD34+normal stem cells isolated from human cord blood.

MV4; 11 leukemia cells = experiment: XTT cytotoxicity assay on MV4;11 leukemia cells, 5 days exposure; format: cell-based; details: 5 days of exposure to drug, read-out: IC50, cytotoxicity against MV4;11 leukemia cells (XTT)
Protocol: as §1
The cytotoxicity of Cantharidin and Norcantharidin against MV4; 11 leukemia cells was measured by a calorimetric assay using XTT. MV4; 11 cells were plated in 96-well plates and the following day, cells were exposed to varying doses of cantharidin and norcantharidin. After 5 days of exposure to drugs, 50 μL of 1 mg/mL XTT and 0.025 mM phenazine methosulfate (PMS) were added. The absorbance of the supernatant was measured at 450 and 630 nm of wells not treated with drug (with cells) as 100% and wells without cells as 0%.

MV4; 11 cells = experiment: XTT time course of killing of MV4;11 cells; format: cell-based; details: at 72 hours
Protocol: as §1
The XTT assay was used to determine the time course of killing of MV4; 11 cells incubated with cantharidin and norcantharidin over time.
Cantharidin was dissolved in DMSO at different concentrations to ensure that final concentrations of DMSO are equivalent in all wells. To control for potential cytotoxic effects of DMSO itself, an equivalent amount of DMSO containing no drug was used as a control.
Norcantharidin was dissolved in DMSO at different concentrations to ensure that final concentrations of DMSO are equivalent in all wells. To control for potential cytotoxic effects of DMSO itself, an equivalent amount of DMSO containing no drug was used as a control.

[3] = XTT colorimetric cytotoxicity assay on cord blood CD34+ cells; format: cell-based; details: CD34+ cells from normal human cord blood; FIG. 1; read-out: IC50, cytotoxicity against CD34+ cells (XTT)
Protocol: as §1, §2

[4] = tested on: leukemia stem cells from bone marrow of a patient with acute myelgenous leukemia (AML); experiment: CAFC assay of leukemia stem cells treated with cantharidin and standard chemotherapy; format: cell-based, human; details: 16 hours treatment, each of the concentrations tested; cobblestone areas after 5 weeks; FIG. 6
Protocol: as §3
Samples of primary human cord blood as well as from the bone marrow of a patient with acute myelgenous leukemia (AML) were tested. Cantharidin and norcantharidin were dissolved in DMSO, and Ara-c and daunorubicin were prepared according to the supplier's instructions. In addition, untreated controls (diluent alone) for both normal and leukemic CD34+ cells were also tested. Cells were treated with varying concentrations of drug for 16 hours. […] After 5 weeks in culture, total cobblestone areas were counted visually using a microscope.

O=C1OC(=O)[C@H]2[C@@H]1[C@@H]1CC[C@H]2O1 [norcantharidin]
IC50 [1]: 52 µM
sensitivity of leukemia cancer stem cells relative to normal stem cells (cord blood CD34+) [2]: increased sensitivity
activity against leukemic cancer stem cells (cobblestone area counts vs control) [2]: potent activity
IC50 (MV4; 11 leukemia cells): 24 µM
cell viability of MV4;11 cells (MV4; 11 cells; 30 μM): less than 10%
cell viability of MV4;11 cells (MV4; 11 cells; 100 μM): less than 10%

C[C@@]12C(=O)OC(=O)[C@]1(C)[C@H]1CC[C@@H]2O1 [cantharidin]
IC50 [3]: 6.5 µM
sensitivity of leukemia cancer stem cells relative to normal stem cells (cord blood CD34+) [2]: increased sensitivity
activity against leukemic cancer stem cells (cobblestone area counts vs control) [2]: potent activity
IC50 (MV4; 11 leukemia cells; Homo sapiens, MV4-11, 120 h): 7.5 µM
viability at 30 µM (MV4; 11 cells; Homo sapiens, MV4-11, 30 μM, read-out: cell viability of MV4;11 cells): < 10%
viability at 100 µM (MV4; 11 cells; Homo sapiens, MV4-11, 100 μM, read-out: cell viability of MV4;11 cells): < 10%
sensitivity of leukemia stem cells compared with cytarabine or daunorubicin (CAFC) [4]: more sensitive
